Tested on: library of 8380 IKZF3 degrons fused to EGFP in Jurkat cells
Assay: Pooled mutant ZF degron library screen (FACS EGFPlow vs EGFP+, NGS), 18 h;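 on logFC: Log2 fold change of EGFPlow over EGFP+ representation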
Format: cell-based, human
Conditions: for Log2FC: WT degron, residues 146/147/149/150/152/153/154/155/167: FQNQGASFL

O=C1CCC(N2C(=O)c3ccccc3C2=O)C(=O)N1 (stereo not shown) [Compound 1, thalidomide, reference compound]
Log2FC (listed as Thal): 1.13
Log2FC (listed as Thalidomide): 1.1337
logFC (degron residues 146/147/149/150/152/153/154/155/167: FADIGAAFL): -0.52
logFC (degron residues 146/147/149/150/152/153/154/155/167: FADIGAAFL, listed as A32): -0.5175
logFC (degron residues 146/147/149/150/152/153/154/155/167: FADIGACFL): -1.27
logFC (degron residues 146/147/149/150/152/153/154/155/167: FADIGACFL, listed as A32): -1.269
logFC (degron residues 146/147/149/150/152/153/154/155/167: FADIGADFL): -2.30
logFC (degron residues 146/147/149/150/152/153/154/155/167: FADIGADFL, listed as A32): -2.302
logFC (degron residues 146/147/149/150/152/153/154/155/167: FADIGAEFL): -1.72
logFC (degron residues 146/147/149/150/152/153/154/155/167: FADIGAEFL, listed as A32): -1.72
logFC (degron residues 146/147/149/150/152/153/154/155/167: FADIGAFFL): -2.34
logFC (degron residues 146/147/149/150/152/153/154/155/167: FADIGAGFL): -1.45
logFC (degron residues 146/147/149/150/152/153/154/155/167: FADIGAHFL): -1.89
logFC (degron residues 146/147/149/150/152/153/154/155/167: FADIGAIFL): -1.38
logFC (degron residues 146/147/149/150/152/153/154/155/167: FADIGAKFL): -0.77
logFC (degron residues 146/147/149/150/152/153/154/155/167: FADIGALFL): -1.99
logFC (degron residues 146/147/149/150/152/153/154/155/167: FADIGAMFL): -1.81
logFC (degron residues 146/147/149/150/152/153/154/155/167: FADIGANFL): -1.52
logFC (degron residues 146/147/149/150/152/153/154/155/167: FADIGAPFL): 0.38
logFC (degron residues 146/147/149/150/152/153/154/155/167: FADIGAQFL): -1.14
logFC (degron residues 146/147/149/150/152/153/154/155/167: FADIGARFL): -0.98
logFC (degron residues 146/147/149/150/152/153/154/155/167: FADIGASFL): -1.01
logFC (degron residues 146/147/149/150/152/153/154/155/167: FADIGATFL): -1.50
logFC (degron residues 146/147/149/150/152/153/154/155/167: FADIGAVFL): -1.28
logFC (degron residues 146/147/149/150/152/153/154/155/167: FADIGAWFL): -2.70
logFC (degron residues 146/147/149/150/152/153/154/155/167: FADIGAYFL): -1.46
logFC (degron residues 146/147/149/150/152/153/154/155/167: FADQGAAFL): -3.14
logFC (degron residues 146/147/149/150/152/153/154/155/167: FADQGACFL): -2.81
logFC (degron residues 146/147/149/150/152/153/154/155/167: FADQGADFL): -2.96
logFC (degron residues 146/147/149/150/152/153/154/155/167: FADQGAEFL): -3.47
logFC (degron residues 146/147/149/150/152/153/154/155/167: FADQGAFFL): -3.47
logFC (degron residues 146/147/149/150/152/153/154/155/167: FADQGAGFL): -2.45
logFC (degron residues 146/147/149/150/152/153/154/155/167: FADQGAHFL): -3.40
logFC (degron residues 146/147/149/150/152/153/154/155/167: FADQGAIFL): -2.61
logFC (degron residues 146/147/149/150/152/153/154/155/167: FADQGAKFL): -2.20
logFC (degron residues 146/147/149/150/152/153/154/155/167: FADQGALFL): -2.67
logFC (degron residues 146/147/149/150/152/153/154/155/167: FADQGAMFL): -2.56
logFC (degron residues 146/147/149/150/152/153/154/155/167: FADQGANFL): -3.17
logFC (degron residues 146/147/149/150/152/153/154/155/167: FADQGAPFL): -2.41
logFC (degron residues 146/147/149/150/152/153/154/155/167: FADQGAQFL): -3.13
logFC (degron residues 146/147/149/150/152/153/154/155/167: FADQGARFL): -2.69
logFC (degron residues 146/147/149/150/152/153/154/155/167: FADQGASFL): -3.41
logFC (degron residues 146/147/149/150/152/153/154/155/167: FADQGATFL): -2.79
logFC (degron residues 146/147/149/150/152/153/154/155/167: FADQGAVFL): -2.29
logFC (degron residues 146/147/149/150/152/153/154/155/167: FADQGAWFL): -2.86
logFC (degron residues 146/147/149/150/152/153/154/155/167: FADQGAYFL): -2.43
logFC (degron residues 146/147/149/150/152/153/154/155/167: FADVGAAFL): -1.13
logFC (degron residues 146/147/149/150/152/153/154/155/167: FADVGACFL): -2.56
logFC (degron residues 146/147/149/150/152/153/154/155/167: FADVGADFL): -2.99
logFC (degron residues 146/147/149/150/152/153/154/155/167: FADVGAEFL): -2.38
logFC (degron residues 146/147/149/150/152/153/154/155/167: FADVGAFFL): -1.98
logFC (degron residues 146/147/149/150/152/153/154/155/167: FADVGAGFL): -2.06

Source: paper PMC12645437, “Orthogonal IMiD-Degron Pairs Induce Selective Protein Degradation in Cells” (ACS Chemical Biology, 2025)
